Source: US12029732B2, “Treatment of vascular and lymphatic disease” (priority 2019, dated 2024)
Entries after “also recorded” stand apart in the source; their conditions may differ.

Tests used:
[1] = system: RP27M4 (Rpl27a^low/+:Mdm4^+/−) mice; test: PFT / c-PFT treatment of pregnant mice carrying RP27M4 embryos (high-p53 lymphedema model); format: in vivo, mouse; conditions: for ratio of mutant pups at birth: RP27M4; for ratio of mutant pups at birth / edema: mothers treated daily from E11.5; for cutaneous hemorrhaging / embryonic (in utero) lethality: RP27M4 mutants, mothers treated daily from E11.5 until delivery; for edema: RP27M4 pups
Protocol: (§1) All mice were maintained on a C57BL/6J background. For timed pregnancies, the first day of observed plug were recorded as day 0.5 post-coitum or embryonic day 0.5 (E0.5). Mice haploinsufficient for the ribosomal protein L27a (Rpl27^low/+) are crossed with Mdm2 or Mdm4 heterozygous mice (Mdm2^+/− or Mdm4^+/−) to generate WT, Rpl27^low/+, Mdm2^+/−, Rpl27^low/+:Mdm2^+/− (RP27M2), Mdm4^+/−, and Rpl27^low/+:Mdm4^+/− mice (RP27M4). To generate mice on a p53-deficient background, we crossed Rpl27^low/+ mice to Mdm2^−/−:p53^−/− or Mdm4^−/−:p53^−/− mice. We therefore obtained RP27M2:p53^+/− mice and RP27M4:p53^+/− mice (FIG. 8). Genotypes were determined by PCR analysis of extracted DNA from tails using published primer sets for Mdm2, Mdm4, and p53. The sex of embryos was determined by detection of Sry and Raspn genes by PCR. Animal care and euthanasia guidelines of the Colorado Institutional Animal Care and Use Committee were followed for all animal work.
(§2) A 10 mM stock of Pifithrin-α (PFT-α, Selleck Bio, cat. S2929) was diluted 1:10 in 1×PBS, protected from light and used instantly. Pregnant mice were injected intraperitoneally from E11.5 to E16.5 and subcutaneously from E17.5 until delivery at 2.2 mg/kg of weight. Animal were monitored daily post-treatment and weights were recorded after delivery.
(§3) Tissues were fixed in 4% neutral buffered paraformaldehyde, processed, and embedded in paraffin by the UCD Research Histology core. Sagittal sections (5 μm) were subjected to immunofluorescence staining (IF) as previously described and according to the manufacturer's recommendations. The primary antibodies used for IF were monoclonal mouse Prox-1 (1:50, P21936, Thermofisher Scientific, Massachusetts, USA), monoclonal rabbit Lyve-1 (1:100, ab14917, Abcam Inc., California, USA), polyclonal rabbit Ki-67 (1:1000, VP-K451, Vector Laboratories, California, USA) and mouse monoclonal p21 (1:100, sc-6246, Santa Cruz Biotechnology, California, USA) antibodies. We used anti-rabbit or anti-mouse Alexa Fluor 594 or Alexa Fluor 488 conjugated secondary antibodies (1:1000, Invitrogen, California, USA), captured the images on a Nikon Eclipse 90i, and quantified using the ImageJ software. Pediatric lymphatic edema was categorized using the ISSVA Classification of Vascular Anomalies and confirmed by PdPn (D2-40 antibody, Ventana or RnD Systems AF3670) staining. IHC for p53 on human tissues were performed using the D-07 antibody (Ventana) on automated strainers (Ventana Ultra) following the manufacturer's recommendations and Clinical Laboratory Improvement Amendments (CLIA) certified procedures. For the visualization of the three-dimensional lymphatic vasculature, murine skin were fixed in 4% Paraformaldehyde (PFA) for 2-4 hours at room temperature for whole mount staining. Tissues were then subjected to procedures as published. H&E was performed following Harris protocols for staining.
(§4) To confirm the contribution of p53 overexpression to lymphedema, a pharmacological approach was used by testing a known reversible p53 negative modulator, Pifithrin-α (PFT). For this, time mating of Rpl27^low/+ mice was set up with Mdm2^+/−, or Mdm4^+/−, mice. Females carrying both models were injected intraperitoneally (IP) daily from E11.5 to […] and their weight gain was recorded until delivery. […] 100% of PFT-RP27M4 mice died did shortly after birth. […] It was speculated that the extent of phenotypic rescue at the low PFT dose used may be determined by the severity of the presentation. Therefore, increasing the amount of PFT given to the RP27M4 carrying mothers may allow for RP27M4 pups to survive.

[2] = DMSO; cited from earlier work
[3] = system: RP27M2 (Rpl27a^low/+:Mdm2^+/−) mice; test: PFT / c-PFT treatment of pregnant mice carrying RP27M2 embryos (high-p53 lymphedema model); format: in vivo, mouse; conditions: for ratio of mutant pups at birth: RP27M2; for ratio of mutant pups at birth / edema: mothers treated daily from E11.5; for cutaneous hemorrhaging / embryonic (in utero) lethality: RP27M2 mutants, mothers treated daily from E11.5 until delivery; for edema: RP27M2 pups
Protocol: as §1, §2, §3, §4

In the case of `Br.Cc1ccc(C(=O)Cn2c3c(sc2=N)CCCC3)cc1` [PFT, 2-[2-Imino-4,5,6,7-tetrahydrobenzothiazol-3-yl]-1-p-tolylethanone hydrobromide], the “pups died shortly after birth” value ([1]; PFT-RP27M4 mice, 2.2 mg/kg to mothers) is reported as 100%, the “subcutaneous edema, H&E staining of dorsal skin” value ([1]; RP27M4, P0 skin) is reported as “no evident subcutaneous edema” and the “lymphatic vessel size, Lyve-1 staining of skin” value ([1]; RP27M4, postnatal day 0 (P0)) is reported as “reverted to a normal size”. For the same compound, the “ratio of mutant pups at birth” value ([1]; hydrobromide) was “born following a Mendelian ratio; also recorded: born at a Mendelian ratio”, the “ratio of mutant pups at birth” value ([1]; listed as PFT-a, hydrobromide) was “born at Mendelian ratio” and the cutaneous hemorrhaging ([1]; hydrobromide) was “reversed symptoms of edema and hemorrhaging; also recorded: eliminates visible skin hemorrhaging; also recorded: no signs of hemorrhaging”. The “embryonic (in utero) lethality” value ([1]; hydrobromide) was “rescued; also recorded: rescues in utero lethality”, the cutaneous hemorrhaging ([1]; listed as PFT-a, hydrobromide) was “do not exhibit cutaneous hemorrhaging” and the postnatal survival ([1]; RP27M4 pups after PFT treatment of mothers) was “did not survive past the first day”. The edema ([1]; hydrobromide) was “reversed symptoms of edema and hemorrhaging; also recorded: considerably reduced”, the edema ([1]; listed as PFT-a, hydrobromide) was “do not exhibit cutaneous hemorrhaging and severe edema” and the solubility [2] was “soluble”. For the same compound, the “appearance of treated pups compared with WT” value ([3]; PFT-RP27M2 mice) was “indistinguishable from WT”, the “pups survived until at least 10 days old” value ([3]; PFT-RP27M2 mice, 2.2 mg/kg to mothers) was 100% and the “subcutaneous edema, H&E staining of dorsal skin” value ([3]; RP27M2, P0 skin) was “no evident subcutaneous edema”. For the same compound, the “lymphatic vessel size, Lyve-1 staining of skin” value ([3]; RP27M2, postnatal day 0 (P0)) was “reverted to a normal size”, the “ratio of mutant pups at birth” value ([3]; hydrobromide) was “born following a Mendelian ratio; also recorded: born at a Mendelian ratio” and the “ratio of mutant pups at birth” value ([3]; listed as PFT-a, hydrobromide) was “born at Mendelian ratio”. For the same compound, the cutaneous hemorrhaging ([3]; hydrobromide) was “reversed symptoms of edema and hemorrhaging; also recorded: eliminates visible skin hemorrhaging; also recorded: no signs of hemorrhaging”, the “embryonic (in utero) lethality” value ([3]; hydrobromide) was “rescued; also recorded: rescues in utero lethality” and the cutaneous hemorrhaging ([3]; listed as PFT-a, hydrobromide) was “do not exhibit cutaneous hemorrhaging”. For the same compound, the edema ([3]; hydrobromide) was “reversed symptoms of edema and hemorrhaging” and the edema ([3]; listed as PFT-a, hydrobromide) was “do not exhibit cutaneous hemorrhaging and severe edema”.
With `Br.Cc1ccc(-c2cn3c4c(sc3n2)CCCC4)cc1` [c-PFT, Cyclic pifithrin-α hydrobromide] the cutaneous hemorrhaging [1] was “eliminates visible skin hemorrhaging”, the “embryonic (in utero) lethality” value ([1]; hydrobromide) was “rescued; also recorded: rescues in utero lethality” and the cutaneous hemorrhaging [3] was “eliminates visible skin hemorrhaging”. For the same compound, the “embryonic (in utero) lethality” value ([3]; hydrobromide) was “rescued; also recorded: rescues in utero lethality”.
